Like-named read-outs stand apart in the source and are kept apart here.
Tests used:
ED43-virus = assay type: cell-based, hepatitis C virus genotype 4a
[1] = system: original ED43 virus (HCV genotype 4a full-length culture virus); test: concentration-response (EC50) assay, original virus; conditions: Hepatitis C virus, Huh7.5, 48 h, read-out: EC50 (nM [95% CI])
Experimental: Huh7.5 cells were seeded on 96-well plates overnight, then infected with the indicated viruses for 24 hours. The cells were subsequently treated with specific inhibitors for an additional 48 hours before analysis as described (Pham et al. 2018; Gottwein et al. 2011). Values are means of triplicates±SEM. The original D43 virus was used in these two experiments as a control. TN (1a) virus was included for comparison.
Huhu7.5 cells were seeded on 96-well plates overnight, then infected with the indicated viruses for 24 hours. The cells were subsequently treated with specific inhibitors for an additional 48 hours before analysis as described (Pham et al. 2018; Gottwein et al. 2011). Values are means of triplicates±SEM. The original ED43 virus was used as a control. TN (1a) virus was included for comparison.
For concentration-response assays using described methods (Pham et al. 2018; Ramirez et al. 2016; Ramirez et al. 2014), stocks of non-treated and of single-treatment escape viruses were prepared. […] The half-maximal effective concentration (EC50) value was calculated using GraphPad Prism 6.

[2] = system: SOFesc virus (ED43 sofosbuvir escape virus); test: microbe, parasite or virus in culture; assay type: cell-based; conditions: Hepatitis C virus, Huh7.5 cells, 48 hours treatment, read-out: EC50 (nM [95% CI])

COC(=O)N[C@H](C(=O)N1CCC[C@H]1c1nc(-c2ccc3c(c2)O[C@@H](c2ccccc2)n2c-3cc3cc(-c4c[nH]c([C@@H]5CCCN5C(=O)[C@@H](NC(=O)OC)C(C)C)n4)ccc32)c[nH]1)C(C)C [elbasvir]
emergence of main RASs responsible for ED43 escape (ED43-virus; 100×EC50): 5 days

COC[C@H]1C[C@@H](c2nc(-c3ccc4c(c3)COc3cc5c(ccc6nc([C@@H]7CC[C@H](C)N7C(=O)[C@@H](NC(=O)OC)C(C)C)[nH]c65)cc3-4)c[nH]2)N(C(=O)[C@H](NC(=O)OC)c2ccccc2)C1 [velpatasvir]
viral escape (ED43-virus; 100×EC50): did not observe viral escape

COC(=O)N[C@H](C(=O)N1CC2(CC2)C[C@H]1c1nc(-c2ccc3c(c2)C(F)(F)c2cc(-c4ccc5[nH]c([C@@H]6[C@H]7CC[C@H](C7)N6C(=O)[C@@H](NC(=O)OC)C(C)C)nc5c4)ccc2-3)c[nH]1)C(C)C [ledipasvir]
emergence of main RASs responsible for ED43 escape (ED43-virus; 100×EC50): 5 days

COC(=O)N[C@H](C(=O)N1CCC[C@H]1C(=O)Nc1ccc([C@@H]2CC[C@@H](c3ccc(NC(=O)[C@@H]4CCCN4C(=O)[C@@H](NC(=O)OC)C(C)C)cc3)N2c2ccc(C(C)(C)C)cc2)cc1)C(C)C [ombitasvir]
emergence of main RASs responsible for ED43 escape (ED43-virus; 100×EC50): 5 days

Cc1cnc(C(=O)N[C@H]2CCCCC/C=C\[C@@H]3C[C@@]3(C(=O)NS(=O)(=O)C3CC3)NC(=O)[C@@H]3C[C@@H](Oc4nc5ccccc5c5ccccc45)CN3C2=O)cn1 [paritaprevir]
emergence of RAS NS3P-D168E after treatment initiation (ED43-virus; 8×EC50): 7 days | viral escape / viral spread under treatment (ED43-virus; 8×EC50): 16 days

CC(C)OC(=O)[C@H](C)N[P@](=O)(OC[C@H]1O[C@@H](n2ccc(=O)[nH]c2=O)[C@](C)(F)[C@@H]1O)Oc1ccccc1 [sofosbuvir]
EC50 [1]: 668 nM | EC50 [2]: 2250 nM | viral escape (ED43-virus; 2×EC50 (initiated at 1×EC50, increased at day 9)): 77 days

COC(=O)N[C@H](C(=O)N1CCC[C@H]1c1nc2cc([C@H]3CC[C@H](c4cc5nc([C@@H]6CCCN6C(=O)[C@@H](NC(=O)OC)[C@@H](C)OC)[nH]c5cc4F)N3c3cc(F)c(N4CCC(c5ccc(F)cc5)CC4)c(F)c3)c(F)cc2[nH]1)[C@@H](C)OC [pibrentasvir]
viral escape (ED43-virus; 5×EC50): ≤ 33 days | treatment outcome (ED43-virus; 10×EC50): viral eradication

Source: patent US20240327801A1, “EFFICIENT CELL CULTURE SYSTEM FOR HEPATITIS C VIRUS GENOTYPE 4a” (Hvidovre Hospital, priority 2021, published 2024)
